Results: publication PMC2807854, “Monoketone analogs of curcumin, a new class of Fanconi anemia pathway inhibitors” (Molecular Cancer, 2009)
Where two headings read alike, the source gives them in different places. Each block holds one compound with its values, some of them ahead of it. Residues, ends and D or L forms follow the SMILES beside them. *: point of attachment. Cbz = O=C(OCc1ccccc1)*

Assays:
[1] = system: xFANCD2-Ub (FANCD2 monoubiquitylation); assay: Xenopus cell-free FA pathway assay: DNA substrate-induced xFANCD2 monoubiquitylation (immunoblot, densitometry); type: biochemical, Xenopus laevis; details: for activity against xFANCD2-Ub in Xenopus extracts: activated Xenopus extracts, serial dilutions up to 3000 μM; for IC50: plasmid-activated Xenopus extracts, Fig. 7B, read-out: xFANCD2-Ub inhibition IC50
Protocol: (§1) A series of monoketone analogs of curcumin [18] was evaluated in Xenopus egg extracts where DNA substrate-induced xFANCD2-Ub is used as a readout of FA pathway performance. Phosphorylation of MRE11 (MRE11-P), a member of the MRN DNA damage repair pathway was monitored to assess the cross-specificity of the compounds. For each compound, IC50 values were determined from serial dilution experiments and densitometry analysis of immunoblots.
(§2) IC50 values were determined using immunoblots of plasmid-activated extracts treated with a range of concentrations for each compound (0, 10, 25, 60, 150, 400, 1000, 3000 μM). A representative experiment is shown (out of 3 repeats). B) Structure of curcumin and monoketone analogs. […] Activated extracts were treated with 1 mM each compound and phosphorylation of RPA32 and H2AX monitored by immunoblot.
(§3) Preparation of Xenopus laevis low-speed extracts and the FA pathway assay were described previously.
(§4) Fitted curves were determined from experimental data using IgorPro. The concentration of compound that induces 50% inhibition of the measured endpoint (i.e. FANCD2 ubiquitylation, Mre11 phosphorylation and cell survival) was then plotted on the fitted curve.

[2] = system: proteasome; assay: Proteasome assay in Xenopus extracts, both activities taken together; type: biochemical, Xenopus laevis; details: caspase-like and chymotrypsin-like activities
Text: The proteasome is required for the monoubiquitylation of xFANCD2 in cells. As curcumin has proteasome inhibiton activities, we tested whether EF24 inhibits xFANCD2-Ub by this mechanism. Two proteasome activities (caspase-like and chymotrypsin-like) along with xFANCD2-Ub status were monitored in activated Xenopus extracts treated with various compounds (Fig. 2A).
Proteasome activities and xFANCD2-Ub were monitored using fluorogenic probes and immunoblotting, respectively. IC50 values were determined for each compound using a range of concentrations and represented in histogram graphs. For MG132, numbers above caspase-like and chymotrypsin-like histograms indicate the actual IC50 values. A representative experiment is shown (out of 3 repeats).
Fluorogenic peptides (Proteasome Substrate Pack #PW9905) specific for the chymotrypsin-like and caspase-like activities of the proteasome were incubated in Xenopus extracts treated with serial dilutions of various compounds. Fluorescence emitted by proteasome cleavage of the peptides was monitored using a fluorometer (FluoStar Galaxy, BMG Labtech) with 380 nm and 460 nm excitation and emission filters, respectively. Experiments were repeated at least twice.

[3] = system: 309ATM KO cells; assay: Survival assay (MTS), ATM KO mouse kidney cells; type: cell-based; details: for IC50: 309ATM KO cells, 72 hrs, MTS, read-out: cell survival IC50 KO; for sensitivity of 309ATM KO cells compared to 334ATM WT cells: 72 hrs survival, KO vs WT
Text: (§5) To test this possibility, we compared the effects of curcumin and EF24 in an ATM KO mouse kidney cell line (309ATM KO) and its isogenic, wild type counterpart (334ATM WT). As expected from ATM deficiency, 309ATM KO cells were more sensitive to ionizing irradiation than 334ATM WT (Additional File 1 - Fig. S3). We next treated these cell lines with various concentrations of EF24 and measured their survival after 72 hrs.
(§6) Figure 6 EF24 but not curcumin or DRB is more toxic to ATM-deficient mouse kidney cells than wild-type cells. A) 309ATM KO and 334ATM WT cells were treated with various concentrations of EF24. Cell viability was measured after 3 days by MTS assay. Each point represents the mean of 3 repeats. Error bars represent standard deviation. B) Similar experiment was performed using curcumin.
(§7) HSC72OT and HSC72OT+A cells were seeded at 5,000 per well in 96-well plates, and treated 24 hrs later with various concentrations of compounds or DMSO (1 μl in 100 μl medium). 309ATM KO and 334ATM WT cells were seeded at 7,000 per well and treated immediately. Cell survival was measured after 3 days using the CellTiter 96 AQueous One Solution Cell Proliferation Assay (Promega) following the recommendations from the manufacturer. All experiments were done in triplicate.
as §4

[4] = system: 334ATM WT cells; assay: Survival assay (MTS), ATM wild-type mouse kidney cells; type: cell-based; details: 72 hrs, read-out: cell survival IC50 WT
Text: as §5, §6, §7, §4

[5] = system: proteasome; parameters: method as in PMID 16982768; details: cited from earlier work
[6] = system: hFANCD2-Ub in HeLa cells; assay: hFANCD2 ubiquitylation assay in hydroxyurea-treated HeLa cells (immunoblot, densitometry); type: cell-based, human; details: Homo sapiens; HeLa cells co-treated with hydroxyurea; read-out: hFANCD2-Ub inhibition IC50
Protocol: We next determined whether EF24 could inhibit hFANCD2-Ub in human cells. Curcumin was tested in parallel to assess whether activity difference observed in extracts are mirrored in cells. HeLa cells were co-treated with increasing concentrations of compounds and hydroxyurea (HU), a standard method to stimulate hFANCD2-Ub (Fig. 4A, lanes 1-2, 7-8, [30]).
A) Hydroxyurea-induced FANCD2-Ub in HeLa cells is inhibited by EF24 at lower concentrations than curcumin. hFANCD2-Ub was monitored by immunoblot and densitometry analysis to determine IC50. B) Hydroxyurea-induced hFANCD2 foci formation is inhibited by EF24. hFANCD2 foci were detected by immunofluorescence and the percentage of cells with more than 5 foci was determined for each treatment. Histograms represent the average of 3 experiments. Error bars represent standard deviation.
hFANCD2 ubiquitylation assay and immunofluorescence assays in HeLa cells have been described elsewhere.
as §4

[7] = system: ubiquitin isopeptidase/deubiquitinase (DUB); parameters: method as in PMID 16982768; details: cited from earlier work
[8] = system: xMRE11-P (MRE11 phosphorylation); assay: MRE11 phosphorylation in activated Xenopus extracts (immunoblot); type: biochemical, Xenopus laevis
Protocol: as §1, §2, §3, §4

[9] = system: IKK-2 (IKKβ) vs IKK-1 (IKKα); details: cited from earlier work
[10] = system: IKK (IκB-α stabilization); assay: IκB-α accumulation in Xenopus extracts as readout of IKK inhibition (immunoblot); type: biochemical, Xenopus laevis; details: Xenopus extracts prepared without cycloheximide, Fig. 3A/3B
Protocol: We tested whether EF24 inhibits IKK activity in Xenopus extracts by monitoring the accumulation of the IKK target, IκB-α (Fig. 3A). Because IκB-α phosphorylation by IKK leads to its degradation by the ubiquitin-proteasome pathway, inhibition of IKK results in the accumulation of IκB-α. For this experiment, we used extracts prepared without cycloheximide to allow for de novo translation of IκB-α.
Extracts treated as indicated were analyzed by immunoblot using xFANCD2, IκB-α and tubulin-α antibodies. IκB-α protein level was used as readout for monitoring IKK inhibition. […] Experiment was performed as in (A). The structure of BMS-345541 is shown. The star denotes a non-specific band used as loading control.

Compound: O=C1/C(=C/c2ccc(F)cc2)CNC/C1=C\c1ccc(F)cc1 [AS153-5]
activity against xFANCD2-Ub in Xenopus extracts [1]: much more potent than the corresponding thio-pyran analog

Compound: O=C1/C(=C/c2ccccn2)CNC/C1=C\c1ccccn1 [EF31]
activity against xFANCD2-Ub in Xenopus extracts [1]: strong activity against xFANCD2-Ub
fold less active than curcumin for proteasome inhibition [2]: 20 fold

Compound: O=C1/C(=C/c2ccccn2)COC/C1=C\c1ccccn1 [0822-3]
activity against xFANCD2-Ub in Xenopus extracts [1]: only weakly active

Compound: OC[C@H]1O[C@@H](n2cnc3cc(Cl)c(Cl)cc32)[C@H](O)[C@@H]1O [DRB, reference compound]
activity against xFANCD2-Ub in Xenopus extracts [1]: no effect on the FA pathway in Xenopus extracts
IC50 [3]: 56 µM
IC50 [4]: 60 µM

Compound: NC1C/C(=C\c2ccccc2F)C(=O)/C(=C/c2ccccc2F)C1 (stereo not shown) [0810-117]
activity against xFANCD2-Ub in Xenopus extracts [1]: non-detectable levels
proteasome inhibition [2]: weak inhibitory activities against both the proteasome and xFANCD2-Ub

Compound: O=C1/C(=C/c2ccc([N+](=O)[O-])cc2)CS(=O)(=O)C/C1=C\c1ccc([N+](=O)[O-])cc1 [4H-TTD, 4H-Thiopyran-4-one, tetrahydro-3,5-bis [(4-nitrophenyl)methylene]-,1,1-dioxide]
proteasome activity [5]: did not inhibit proteasome activity
IC50 [1]: 250 µM
overall cell toxicity concentration relative to EF24 ([3]; 309ATM KO and 334ATM WT survival assay): about 10 times
sensitivity of 309ATM KO cells compared to 334ATM WT cells [3]: 3 fold
IC50 ([3]; Mus musculus): 0.18 µM
IC50 ([4]; Mus musculus): 0.5 µM
IC50 [6]: 0.12 µM
ubiquitin isopeptidase/deubiquitinase (DUB) inhibition [7]: exhibited ubiquitin isopeptidase/deubiquitinase (DUB) inhibition activity

Compound: CO[C@H]([C@H](O)CC(=O)[C@@H](C)[C@@H](O)CC[C@@H](C)[C@@H]1O[C@]2(CC[C@@H](C)[C@H](CC[C@H](C)C(C)=O)O2)CC[C@@H]1C)[C@H](OC(=O)C[C@@H](O)C1=C(C)C(=O)OC1=O)C(C)C [tautomycin, reference compound]
activity against xFANCD2-Ub in Xenopus extracts [1]: no detectable effect on xFANCD2-Ub
effect on xMRE11 phosphorylation [8]: accumulation of xMRE11-P

Compound: CC(C)(C)OC(=O)N1C/C(=C\c2ccccc2F)C(=O)/C(=C/c2ccccc2F)C1 [0616-104]
activity against xFANCD2-Ub in Xenopus extracts [1]: non-detectable levels

Compound: O=C1/C(=C/c2ccccn2)CSC/C1=C\c1ccccn1 [0821-120A]
activity against xFANCD2-Ub in Xenopus extracts [1]: drops the activity only slightly

Compound: O=C1/C(=C/c2cccc(F)c2)CNC/C1=C\c1cccc(F)c1 [AS153-4]
activity against xFANCD2-Ub in Xenopus extracts [1]: strong activity against xFANCD2-Ub
fold less active than curcumin for proteasome inhibition [2]: 20 fold

Compound: O=C1/C(=C/c2ccccc2F)COC/C1=C\c1ccccc1F [AS153-2]
activity against xFANCD2-Ub in Xenopus extracts [1]: undetectable levels

EC50 ([1]; Xenopus extracts prepared without cycloheximide, Fig. 3A/3B, read-out: xFANCD2-Ub inhibition EC50): 970 µM
EC50 [10]: 280 µM
Compound: Cc1ccc2nc(NCCN)c3ncc(C)n3c2c1 [BMS-345541, reference compound]
fold more active on IKK-2 (IKKβ) than on IKK-1 (IKKα) [9]: 10 fold
effect on xMRE11 phosphorylation [8]: MRE11 phosphorylation was inhibited

Compound: COc1cc(/C=C/C(=O)CC(=O)/C=C/c2ccc(O)c(OC)c2)ccc1O [curcumin]
activity against xFANCD2-Ub in Xenopus extracts [1]: only a weak activity on xFANCD2-Ub
IC50 [1]: > 2000 µM
sensitivity of 309ATM KO cells compared to 334ATM WT cells [3]: slightly more resistant
IC50 ([3]; Mus musculus): 23 µM
IC50 ([4]; Mus musculus): 17 µM
IC50 [6]: 15 µM
proteasome inhibition [2]: efficiently inhibited both proteasome activities

Compound: CC(C)C[C@@H](C=O)NC(=O)[C@H](CC(C)C)NC(=O)[C@H](CC(C)C)NC(=O)OCc1ccccc1 [MG132, reference compound] (Cbz-Leu-Leu-Leu-aldehyde)
activity against xFANCD2-Ub in Xenopus extracts [1]: only a weak activity on xFANCD2-Ub
proteasome inhibition [2]: efficiently inhibited both proteasome activities
